Test results: patent publication US20050106226A1, “Pretreatment method and system for enhancing transdermal drug delivery” (priority 2003, published 2005)

What was measured:
[1] = Passive transdermal delivery of PPS from hydrogel gel patch after microprojection array pretreatment, determined by urinary excretion of tritium; format: in vivo, hairless guinea pig; settings: passive diffusion
Experimental: In this experiment, PPS was delivered by passive diffusion through skin pathways created by a pretreatment device having a microprojection array. The microprojection array comprised a stainless steel sheet having a thickness of 0.025 mm, trapezoidally shaped microprojections bent at an angle of approximately 90° to the plane of the sheet and a microprojection density of 241 microprojections/cm^2. […] The gel patch comprised a foam, double adhesive ring (diameter 3.8 cm, thickness 0.16 cm) having 0.35 mL of a hydrogel formulation and a skin contact area of 2 cm^2. The hydrogel formulation included tritiated PPS at 50 mg/mL in a 2% hydroxyethyl cellulose ([…], HERCULES Int. Lim. Netherlands, determined molecular weight: Mw 1890000, Mn 1050000) hydrogel. […] The amount of the biologically active agent (or drug) that penetrated the skin during selected time intervals was determined by measuring urinary excretion of tritium (previous studies had shown that in HGP's 32% of 3H-PPS injected intravenously is excreted in urine). […] After 24 h delivery, more than 6 mg of PPS had been administered systemically.

[2] = injected intravenously, HGP; cited from earlier work

amount of PPS administered systemically ([1]; after 24 h delivery, tritiated PPS 50 mg/mL in 2% HEC hydrogel, 0.35 mL, 2 cm^2): more than 6 mg
flux of PPS through the skin ([1]; FIG. 19): time dependant flux
Substance: pentosan polysulfate [PPS]
fraction of 3H-PPS excreted in urine [2]: 32%
